Assay results reported in patent US6784314B2, “Process for producing amine derivatives” (Takeda Chemical Industries, Ltd., priority 2000, dated 2004).
Structures can show the parent of a compound that is named as a salt.

Legend:
[1] = stability on storage for a long time under usual conditions; type: physicochemical
β-amyloid protein = assay: action of inhibiting the production and secretion of β-amyloid protein

## CN(C)CC[C@@H]1CCc2cc(OCc3ccc(-c4ccccc4)cc3)ccc2C1 [Compound (V′), (R)-(+)-6-(4-biphenylyl)methoxy-2-[2-(N,N-dimethylamino)ethyl]tetralin hydrochloride monohydrate]
[1]
  stability (denaturation after storage): very excellent in stability
β-amyloid protein
  action of inhibiting the production and secretion of β-amyloid protein: excellent
toxicity
  toxicity: low toxic
Transfer to the brain
  transfer to the brain: excellent in transfer to the brain
